The record followed here is US8053553B2, “Targeting host proteinases as a therapeutic strategy against viral and bacterial pathogens” (Socpra Sciences Sante Et Humaines, priority 2007, dated 2011).

Where two headings read alike, the source gives them in different places. Non-standard residues stand in square brackets, D forms with d. Residues, ends and D or L forms follow the SMILES beside them. No end group written: not given here. βAla = NCCC(=O)O; Sar = CNCC(=O)O A value given as a limit tells only on which side of the number the result lay.

Series [1] deals with PACE4. Nature of the series: Ki, μM | PACE4.
Series [2] concerns the target PC4. In words: Ki, μM | PC4.
In series [3] the target is PC5/6. In words: Ki, μM | PC5/6.
The target of series [4] is PC7. In words: Ki, μM | PC7.
For series [5], the system named is B. anthracis Sterne spores. More on the design: species or system A/J mice. The following applies: mouse, in vivo.
For series [6], the system named is Pseudomonas exotoxin A (PEx). Nature of the series: Lethal action of Pseudomonas exotoxin A in mice. Format: in vivo, C57/BL6 mice. As for the experimental part:
A similar set of experiments was carried out with an unrelated toxin, Pseudomonas exotoxin A. Consistent with the earlier data (Chiron, M. F., et al. 1997), Pseudomonas exotoxin A (PEx) was resistant to PC cleavage at pH 7.5 but following unfolding at pH 5.5 PEx (66 kDa) was readily processed by furin, PC4 and PC5/6 to produce the 28 kDa N-terminal fragment and the toxic 37 kDa Cterminal fragment (FIG. 3A). C57/BL6 mice (5 mice/group) received one intramuscular injection of PEx (500 ng/animal; 2xLD50; Fogle, M. R., et al. 2002) and one injection of the […] (SEQ ID NO:212) peptide (12.5 mg/kg i.p.) either 24 h prior to toxin injection or simultaneously with toxin. Another group of mice, after receiving one injection of the peptide 24 h prior to toxin injection, continued to receive daily injections of the peptide for the remainder of the experiment.
C57/BL6 mice (5 mice/group) received one intramuscular injection of PEx (500 ng/animal; 2xLD50; Fogle, M. R., et al. 2002). Mice received one injection of the […] (SEQ ID NO:212) peptide (12.5 mg/kg i.p.) either 24 h prior to toxin injection or simultaneously with toxin. Additional group of mice after receiving one injection of the peptide 24 h prior to toxin injection continued to receive daily injections of the peptide for the remainder of the experiment (FIG. 3B).

In series [7] the test system is RAW 264.7 cells.
Series [8] concerns the target T1, furin (Homo sapiens, UniProt P09958).
T1 construct: made in house; host or cells: Drosophila S2 cells (Invitrogen expression system)
Nature of the series: biochemical.

[9] abbreviates: furin, Pyr-RTKR-AMC substrate, alanine scanning mutagenesis of the H5 furin cleavage sequence (Table 2), read-out: Ki.
Setting [10] is: furin, Pyr-RTKR-AMC substrate, optimization of the inhibitory peptides (Table 3), read-out: Ki.

T1 sequence (P09958 108-794 limits assumed): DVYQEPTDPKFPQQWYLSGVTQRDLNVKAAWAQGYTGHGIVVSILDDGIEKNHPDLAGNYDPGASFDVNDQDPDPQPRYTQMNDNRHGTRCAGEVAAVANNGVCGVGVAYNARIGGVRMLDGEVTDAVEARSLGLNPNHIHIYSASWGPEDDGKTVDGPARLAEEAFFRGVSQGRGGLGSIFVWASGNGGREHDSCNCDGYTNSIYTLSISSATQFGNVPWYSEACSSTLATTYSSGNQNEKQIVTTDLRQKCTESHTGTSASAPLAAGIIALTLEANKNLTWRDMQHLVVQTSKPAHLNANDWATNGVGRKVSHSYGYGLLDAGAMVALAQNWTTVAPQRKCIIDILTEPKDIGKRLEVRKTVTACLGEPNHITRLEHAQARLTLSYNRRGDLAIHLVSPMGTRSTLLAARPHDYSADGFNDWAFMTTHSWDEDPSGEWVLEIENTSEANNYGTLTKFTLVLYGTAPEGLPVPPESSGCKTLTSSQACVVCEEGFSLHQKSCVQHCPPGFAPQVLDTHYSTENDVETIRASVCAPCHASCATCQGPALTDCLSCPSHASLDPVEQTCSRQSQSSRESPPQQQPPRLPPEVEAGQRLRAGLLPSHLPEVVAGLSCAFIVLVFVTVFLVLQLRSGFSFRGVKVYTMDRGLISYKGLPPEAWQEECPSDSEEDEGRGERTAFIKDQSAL

With `C[C@H](NC(=O)[C@H](CCCNC(=N)N)NC(=O)[C@@H]1CCCN1C(=O)[C@@H](N)[C@@H](C)O)C(=O)N[C@@H](CCCNC(=N)N)C(=O)N[C@@H](CCCNC(=N)N)C(=O)N[C@@H](CCCNC(=N)N)C(=O)N[C@@H](CCCCN)C(=O)N[C@@H](CCCCN)C(=O)N[C@@H](CCCNC(=N)N)C(=O)N[C@H](C(N)=O)[C@@H](C)O` (H-TPRARRRKKRT-NH2) [listing 1 of 2 here], the Ki in series [1] worked out at 0.162 µM; in series [2], 0.441 µM; in series [3], 0.232 µM; in series [4] it was 0.152 µM.

Consider `C[C@H](NC(=O)[C@H](CCCNC(=N)N)NC(=O)[C@@H]1CCCN1C(=O)[C@@H](N)[C@@H](C)O)C(=O)N[C@@H](CCCNC(=N)N)C(=O)N[C@@H](CCCNC(=N)N)C(=O)N[C@@H](CCCNC(=N)N)C(=O)N[C@@H](CCCCN)C(=O)N[C@@H](CCCCN)C(=O)N[C@@H](CCCNC(=N)N)C(=O)N[C@H](C(N)=O)[C@@H](C)O` (H-TPRARRRKKRT-NH2) [listing 2 of 2 here], for which the “infected mice protected from disease” value in series [5] was found to be 40%. Also, the survival in series [6] (C57/BL6 mice, PEx 500 ng/animal (2xLD50), peptide 12.5 mg/kg i.p. 24 h prior to toxin then daily injections) came out at 60%. The “protection of mice from the toxic effect of PEx” value in series [6] (peptide 12.5 mg/kg i.p. (FIG. 3)) is “protects mice from the toxic effect of Pseudomonas PEx”. Moreover, in series [7], the “protection from LF-induced cytotoxicity” value is recorded as “protected cells from LF-induced cytotoxicity”. Regarding `C[C@@H](O)[C@H](N)C(=O)N1CCC[C@H]1C(=O)N[C@@H](CCCNC(=N)N)C(=O)N[C@@H](CCC(=O)O)C(=O)N[C@@H](CCCNC(=N)N)C(=O)N[C@@H](CCCNC(=N)N)C(=O)N[C@@H](CCCNC(=N)N)C(=O)N[C@@H](CCCCN)C(=O)N[C@@H](CCCCN)C(=O)N[C@@H](CCCNC(=N)N)C(N)=O` (H-TPRERRRKKR-NH2), the Ki in series [8] (setting [9]) was over 100 nM. Consider `CC(C)[C@H](NC(=O)[C@H](CCCNC(=N)N)NC(=O)[C@H](CCCCN)NC(=O)[C@H](CCCCN)NC(=O)[C@H](CCCNC(=N)N)NC(=O)[C@H](CCCNC(=N)N)NC(=O)[C@H](CCCNC(=N)N)NC(=O)[C@H](CCC(=O)O)NC(=O)[C@H](CCCNC(=N)N)NC(=O)[C@@H]1CCCN1C(=O)[C@@H](N)[C@@H](C)O)C(N)=O` (H-TPRERRRKKRV-NH2), for which the Ki in series [8] (setting [9]) is over 100 nM.

As for `C[C@@H](O)[C@H](N)C(=O)N1CCC[C@H]1C(=O)N[C@@H](CCCNC(=N)N)C(=O)N[C@@H](CCC(=O)O)C(=O)N[C@@H](CCCNC(=N)N)C(=O)N[C@@H](CCCNC(=N)N)C(=O)N[C@@H](CCCNC(=N)N)C(=O)N[C@@H](CCCCN)C(=O)N[C@@H](CCCCN)C(=O)N[C@@H](CCCNC(=N)N)C(=O)N(C)CC(N)=O` (H-TPRERRRKKR[Sar]-NH2), the Ki in series [8] (setting [9]) was over 100 nM. As for `C[C@@H](O)[C@H](N)C(=O)N1CCC[C@H]1C(=O)N[C@@H](CCCN=C(N)N)C(=O)NCC(=O)N[C@@H](CCCN=C(N)N)C(=O)N[C@@H](CCCN=C(N)N)C(=O)N[C@@H](CCCN=C(N)N)C(=O)N[C@@H](CCCCN)C(=O)N[C@@H](CCCCN)C(=O)N[C@@H](CCCN=C(N)N)C(=O)NCC(N)=O` (H-TPRGRRRKKRG-NH2), the inhibition constant Ki in series [8] (setting [10]) amounted to 47 nM. As to `O=C(O)c1cn(C2CC2)c2cc(N3CCNCC3)c(F)cc2c1=O` [Cipro, reference compound], in series [5], the “infected mice protected from disease” value is on record as 40% and the “protection of A/J mice from anthrax” value was “protect A/J mice from anthrax”. With `C[C@@H](O)[C@H](NC(=O)[C@H](CCCNC(=N)N)NC(=O)[C@H](CCCCN)NC(=O)[C@H](CCCCN)NC(=O)[C@@H](N)CCCNC(=N)N)C(N)=O` [RKKRT] (H-RKKRT-NH2), in series [8] (furin, Pyr-RTKR-AMC substrate, N-terminal deletions (Example 2, Table 6), read-out: Ki), the Ki turned out to be 1000 nM. `C[C@@H](O)[C@H](N)C(=O)N1CCC[C@H]1C(=O)N[C@@H](CCC(N)=O)C(=O)N[C@@H](CCCNC(=N)N)C(=O)NCCC(=O)N[C@@H](CCCNC(=N)N)C(=O)N[C@@H](CCCNC(=N)N)C(=O)N[C@@H](CCCNC(=N)N)C(=O)N[C@@H](CCCCN)C(=O)N[C@@H](CCCCN)C(=O)N[C@@H](CCCNC(=N)N)C(=O)NCC(N)=O` [TPQR1RRRKKRG]: in series [8] (setting [10]), the Ki is over 100 nM.

Take `C[C@@H](O)[C@H](N)C(=O)N1CCC[C@H]1C(=O)N[C@@H](CCC(N)=O)C(=O)N[C@@H](CCCNC(=N)N)C(=O)NCCCCCC(=O)N[C@@H](CCCNC(=N)N)C(=O)N[C@@H](CCCNC(=N)N)C(=O)N[C@@H](CCCNC(=N)N)C(=O)N[C@@H](CCCCN)C(=O)N[C@@H](CCCCN)C(=O)N[C@@H](CCCNC(=N)N)C(=O)NCC(N)=O` [TPQR2RRRKKRG]: the Ki in series [8] (setting [10]) is over 100 nM. Regarding `C[C@@H](O)[C@H](N)C(=O)N1CCC[C@H]1C(=O)N[C@@H](CCC(N)=O)C(=O)N[C@@H](CCCNC(=N)N)C(=O)N[C@@H](CCCNC(N)=O)C(=O)N[C@@H](CCCNC(=N)N)C(=O)N[C@@H](CCCNC(=N)N)C(=O)N[C@@H](CCCNC(=N)N)C(=O)N[C@@H](CCCCN)C(=O)N[C@@H](CCCCN)C(=O)N[C@@H](CCCNC(=N)N)C(=O)NCC(N)=O` [TPQR4RRRKKRG], in series [8], the Ki is over 100 nM. `C[C@@H](O)[C@H](N)C(=O)N1CCC[C@H]1C(=O)N[C@@H](CCC(N)=O)C(=O)N[C@@H](CCCNC(=N)N)C(=O)N[C@@H](CC1CCCCC1)C(=O)N[C@@H](CCCNC(=N)N)C(=O)N[C@@H](CCCNC(=N)N)C(=O)N[C@@H](CCCNC(=N)N)C(=O)N[C@@H](CCCCN)C(=O)N[C@@H](CCCCN)C(=O)N[C@@H](CCCNC(=N)N)C(=O)NCC(N)=O` [TPQR7RRRKKRG]: the inhibitory constant (Ki) in series [8] (setting [10]) is over 100 nM. On the same count and under the same terms, the same measure for `CC[C@H](NC(=O)[C@H](CCCNC(=N)N)NC(=O)[C@H](CCC(N)=O)NC(=O)[C@@H]1CCCN1C(=O)[C@@H](N)[C@@H](C)O)C(=O)N[C@@H](CCCNC(=N)N)C(=O)N[C@@H](CCCNC(=N)N)C(=O)N[C@@H](CCCNC(=N)N)C(=O)N[C@@H](CCCCN)C(=O)N[C@@H](CCCCN)C(=O)N[C@@H](CCCNC(=N)N)C(=O)NCC(N)=O` [TPQR8RRRKKRG]: over 100 nM; for `C[C@@H](O)[C@H](N)C(=O)N1CCC[C@H]1C(=O)N[C@@H](CCC(N)=O)C(=O)N[C@@H](CCCNC(=N)N)C(=O)N[C@H](CCC(=O)O)C(=O)N[C@@H](CCCNC(=N)N)C(=O)N[C@@H](CCCNC(=N)N)C(=O)N[C@@H](CCCNC(=N)N)C(=O)N[C@@H](CCCCN)C(=O)N[C@@H](CCCCN)C(=O)N[C@@H](CCCNC(=N)N)C(=O)NCC(N)=O` [TPQReRRRKKRG]: over 100 nM. On the same count and under the same terms, in the case of `C[C@@H](O)[C@H](N)C(=O)N1CCC[C@H]1C(=O)N[C@@H](CCC(N)=O)C(=O)N[C@@H](CCCNC(=N)N)C(=O)N[C@H](CCCCN)C(=O)N[C@@H](CCCNC(=N)N)C(=O)N[C@@H](CCCNC(=N)N)C(=O)N[C@@H](CCCNC(=N)N)C(=O)N[C@@H](CCCCN)C(=O)N[C@@H](CCCCN)C(=O)N[C@@H](CCCNC(=N)N)C(=O)NCC(N)=O` [TPQRkRRRKKRG] it was over 100 nM; in that of `C[C@@H](O)[C@H](N)C(=O)N1CCC[C@H]1C(=O)N[C@@H](CCC(N)=O)C(=O)N[C@@H](CCCNC(=N)N)C(=O)N[C@H](CCCNC(=N)N)C(=O)N[C@@H](CCCNC(=N)N)C(=O)N[C@@H](CCCNC(=N)N)C(=O)N[C@@H](CCCNC(=N)N)C(=O)N[C@@H](CCCCN)C(=O)N[C@@H](CCCCN)C(=O)N[C@@H](CCCNC(=N)N)C(=O)NCC(N)=O` [TPQRrRRRKKRG], over 100 nM. With TPQRARRRKKRF, the inhibition constant (Ki) in series [1] came to 0.602 µM; in series [2], 0.772 µM; in series [3] it was 0.806 µM; in series [4] it was 1.13 µM. As to TPQRARRRKKRT, the inhibition constant (Ki) in series [2] was determined as 0.515 µM; in series [3], 0.188 µM; in series [4], 0.206 µM. On to TPQRARRRKKRW, for which the inhibition constant Ki in series [1] was determined as 0.192 µM; in series [2], 0.952 µM; in series [3] it was 0.433 µM; in series [4] it was 0.172 µM. In the same order, the values of TPQRARRRKKRY are 1.02 µM, 0.624 µM, 0.649 µM and 1.22 µM. In the same order, the values of TPRARRRKKRI are 0.026 µM, 0.562 µM, 0.492 µM and 0.135 µM. Take “β-Ala-TPRARRRKKRT-amide ([βAla]TPRARRRKKRT-NH2; N-terminus assumed; SMILES C[C@H](NC(=O)[C@H](CCCNC(=N)N)NC(=O)[C@@H]1CCCN1C(=O)[C@@H](NC(=O)CCN)[C@@H](C)O)C(=O)N[C@@H](CCCNC(=N)N)C(=O)N[C@@H](CCCNC(=N)N)C(=O)N[C@@H](CCCNC(=N)N)C(=O)N[C@@H](CCCCN)C(=O)N[C@@H](CCCCN)C(=O)N[C@@H](CCCNC(=N)N)C(=O)N[C@H](C(N)=O)[C@@H](C)O)”: the “protection of A/J mice from anthrax” value in series [5] is given as “protect A/J mice from anthrax”.

The Ki is a measure of affinity in units of concentration, obtained from inhibition or displacement.
